The source of these data is patent publication US20110065674A1, “METHODS AND COMPOSITIONS FOR IMPROVING COGNITIVE FUNCTION” (priority 2008, published 2011).

Molecules are shown by their SMILES. Entries after “also recorded” stand apart in the source; their conditions may differ.

One series deals with muscarinic receptor. In words: Muscarinic receptor-stimulated GTP-Eu binding assay on hippocampal membranes of treated rats. The series is classed as biochemical, rat. The conditions noted are these: chronic low dose valproate, memory impaired aged rats, vs vehicle treated; FIG. 1. As for the experimental part: Membrane preparation: Rats were decapitated and the hippocampus was dissected on ice then frozen at −80° C. All the tissue was stored in −80° C. and processed for GTP-Eu binding. For the GTP-Eu binding assay, membranes were prepared from frozen tissue by gentle homogenization with a Dounce homogenizer in five volumes of ice-cold 50 mM Tris buffer, pH 7.4, containing 0.2 mM EGTA and protease inhibitors. After centrifuging at 40,000×g at 4° C. for 10 min, the pellets were resuspended in 30 ml of ice-cold Tris buffer. The steps described above were repeated twice, and then the final pellets were resuspended in assay buffer (50 mM Tris, 0.2 mM EGTA, 5 mM MgCl2, and 100 mM NaCl, pH 7.4) (Zhang et al 2007).
Muscarinic receptor-stimulated GTP-Eu binding assay. GTP-Eu binding was assessed using time-resolved fluorescence (Wallac 1420, Perkin-Elmer). The membranes and all the reagents were diluted with assay buffer. Samples were added into a 96-well filter plate in a counter-balanced manner based upon age and behavioral performance, although the experimenter was blind to the identification of the groups at the time of the assay. […] The integration of GTP-Eu into the membrane was measured by excitation of the samples at 340 nm and reading the emission at 615 nm using time-resolved fluorescence (Zhang et al 2007, Nicolle et al 1999). […]

The subject of series [1] is memory impaired aged rats. In words: 6 hour-delay water maze spatial memory task in aged-impaired rats. The series is classed as in vivo, rat. The settings on record: AI rats, FIG. 2. As for the experimental part: (§1) AI Rats were treated with sodium valproate (“VPA”) chronically and subcutaneously at a rate of 100 mg/kg/day via implanted osmotic minipump, and then trained and tested in a new water maze environment. The water maze used here was housed in a different building and was surrounded by black curtains with a novel set of white patterns. The training protocol used was based on a modified water maze task known to be highly hippocampal-dependent (de Hoz et al., 2005; Steele & Morris, 1999). Unlike the traditional water maze protocol (such as that used in the background assessment, described above) wherein the escape platform location remained constant throughout training, the escape platform location in this spatial memory version of the task varied from day to day.
The test was comprised of a training phase followed by a memory retention test. Each day, during the training phase, rats were given six trials to locate the submerged escape platform. On each trial, a rat was released in the maze from one of four equally spaced starting positions around the perimeter of the pool. The starting position varied from trial to trial. […] The rat was then removed from the platform and placed in a holding cage for another 40 s before the next trial. The length of the path the rat took while swimming in the maze was measured in each trial. […]

Series [2] in a line: Blood total VPA level under chronic subcutaneous administration. The settings on record: chronic subcutaneous administration of 100 mg/kg/day. The series is classed as in vivo, rat. As to the method:
as §1
After the 6-hr waiting period, the rats were returned to the water maze for a test of spatial memory with the submerged platform located in the same position as in the training trials. Each rat was given 60 s to locate the platform. Rats were trained and tested in this manner for five consecutive days. Performances on the last three days were averaged for analysis. […] The chronic subcutaneous administration of 100 mg/kg/day VPA results in a blood total VPA level of 10 μg/ml plasma (10 μg/ml total VPA).

Series [3] concerns Age-Impaired (AI) Long-Evans rats. The experiment in a line: 24 hour-delay Morris Water Maze memory retention trial in aged-impaired rats. The series is classed as in vivo, rat. The settings on record: for spatial memory retention (time in target quadrant) in 24-hr retention trial: donepezil alone 0.5, 1.0 and 2.0 mg/kg i.p. before training.
Protocol: Age-Impaired (AI) Long-Evans rats (as characterized above) were tested for their memory of new spatial information in the MWM, under different drug/control treatment conditions: vehicle control, donezepil only, VPA only, and combination of VPA and donezepil. Donezepil was administered at a range of doses (0.5, 1.0 or 2.0 mg/kg) 30 minutes to 1 hour prior to training trials. VPA was administered chronically and subcutaneously at a rate of 100 mg/kg/day via implanted osmotic minipump.
AI rats were given six training trials per training day with a 60-sec inter-trial interval between each training trial for two consecutive days. On each training trial, the rat was released in the maze from one of four equally spaced starting positions around the perimeter of the pool. […] 30 minutes to 1 hour prior to all the training trials on each training day, AI rats were pretreated with one of four drug conditions: 1) vehicle control (0.9% saline solution); 2) 0.5 mg/kg donpepzil; and 3) 1.0 mg/kg donpepzil; and 4) 2.0 mg/kg donpepzil through intraperitoneal (i.p.) injection.
The same AI rats were used for the entire set of experiments so that each treatment condition was tested on each of the rats. Therefore, to counterbalance any potential bias, both the location of the escape platform and the spatial cues surrounding the water maze were different in the four treatment conditions. In other words, using one set of locations and spatial cues, two rats were treated with saline control solution, two with 0.5 mg/kg donpepzil, two with 1.0 mg/kg donpepzil and two with 2.0 mg/kg donpepzil. These groups were cycled through 3 more sets of locations and spatial cues, with each group of two receiving a different treatment each time, so that at the end, each treatment condition was tested in eight rats.
After the completion of the twelve training trials (over the two days), the rats were returned to their home cages in the colony room for a 24-hr waiting period, in preparation for the subsequent memory retention test. After the waiting period, the rat was given one testing trial (the “retention trial”), which was the same MWM task as the training trials, but with the escape platform removed.
For the retention trial, the MWM circular pool was divided into 4 quadrants. The particular quadrant where the escape platform was placed in the training trials is referred to as the “target quadrant”. The particular region where the platform was located in the training trials is referred to as the “target annulus”. In the retention trial, the time the AI rats spent swimming in the target quadrant was measured and further plotted as a percentage of total swimming time. The time the AI rats spend in the target annulus was also measured. […]

Consider `CCCC(CCC)C(=O)[O-].[Na+]` [VPA, sodium valproate], for which the “muscarinic receptor-stimulated GTP-Eu binding in the hippocampus (percentage of young rat)” value in the series on muscarinic receptor is recorded as “effectively restore post-synaptic muscarinic coupling; also recorded: increases muscarinic receptor-GTP-Eu binding”. In addition, the “memory retention (forgetting, path length) after a 6-hr delay” value in series [1] (VPA 100 mg/kg/day chronic s.c. minipump, vs saline or VPA 50 mg/kg/day) was “showed less forgetting; also recorded: improved the performance”. Also, the “performance (path length) at the end of the training phase” value in series [1] (chronic s.c. minipump, Trials 1-6, compared with saline) is listed as “performed at a comparable level”. Further, the “blood total VPA level” value in series [2] was found to be 10 μg/ml plasma. Also, the “spatial memory retention in 24-hr retention trial” value in series [3] (VPA only, 100 mg/kg/day chronic s.c. minipump, FIG. 3, 100 mg/kg/day) is on record as “no improvement seen”.
On to `COc1cc2c(cc1OC)C(=O)C(CC1CCN(Cc3ccccc3)CC1)C2` (stereo not shown) [donezepil, donepezil], for which the “spatial memory retention (time in target quadrant) in 24-hr retention trial” value in series [3] (FIG. 3) is listed as “did not significantly improve”; in series [3] (FIG. 3, listed as Donezepil) it was “no effect”.
